In data set [1] the test system is NF-κB luciferase reporter in Ad5-wt-hERα infected HAECT-1 cells. Nature of the data set: ER/NF-κB-luc: IL-1β induced NF-κB luciferase reporter in Ad5-wt-ER infected HAECT-1 cells. The data set is classed as cell-based. The following applies: Homo sapiens; for IC50: HAECT1, Ad5-wt-ER infected HAECT-1 cells, IL-1β, read-out: ER/NF-KB-luc IC50; for Emax: HAECT1, efficacy relative to the maximal inhibition observed with E2, read-out: ER/NF-KB-luc % Eff*. Here is the method:
(§1) T-175 flasks of 100% confluent HAECT-1 cells (immortalized human aortic endothelial cells) were washed with 8 ml of HBSS (HEPES buffered saline solution) and infected for four hours with 6 ml of a 1:10 dilution of Ad5-wt-hERα virus (an adenovirus transfection vector that mediates CMV promoter driven expression of human ERα) in phenol red free Endothelial Cell Basal medium (Clonetics, San Diego Calif., Catalog # CC-3129) containing 0.25% bovine serum albumin (EBM-BSA). After four hours, cells were washed with EBM-BSA and incubated overnight in the same medium. Following overnight incubation, cells were washed with EBM-BSA and infected for 2 hours with 6 ml of a 1:10 dilution of Ad5-3×(NFκB).Luc virus (Adenovirus luciferase expression vector driven by 3 repeats of the MHC NFκb site 5′ to the thymidine kinase promoter) in EBM-BSA. After two hours, cells were washed and incubated at 34° C. for 1 hour. Cells were then washed, trypsinized, counted and resuspended in 95% FBS/5% dimethylsulfoxide at a concentration of 4×10^6 cells/ml, frozen as 1 or 5 ml aliquots in cryo-vials and stored at −150° C. Control (no ER infection) cells were processed as above without Ad5-wt-hERα virus infection.
(§2) ERα infected HAECT-1 cells or control cells were thawed, diluted 42× in warm EBM-BSA, plated into 96-well plates at 0.1 ml/well and incubated for 4 h at 34° C. Test compounds were added to the cells as 2× stocks in EBM-BSA containing 2 ng/ml IL-1β (R&D Systems) and plates were returned to the incubator (34° C.). After 15-20 h, 100 μl aliquots of media were removed from the cells and assayed for IL-6 content using a BioSource human IL-6 ELISA Kit. Cells were subsequently washed with 300 μl of Dulbecco's phosphate buffered saline and lysed in 50 μl of Cell Culture Lysis Reagent (Promega). Luciferase was determined on a Wallac Victor^2 Luminometer (Gaithersburg, Md.) using 10 μl of lysate and mixing with 100 μl of Promega Luciferase Assay reagent. Creatine kinase was determined from the rate of increase in A340 following addition of 100 μl of CK assay reagent (Sigma, cat. No 47-10) to the remainder of the cell lysate.
(§3) For IC50 and EC50 calculations, mean IL-6, luciferase or CK values versus log10 of the compound concentration were fitted to a four parameter logistic equation. The IC50/EC50 value, ‘Hill slope’, upper and lower limits of the curve were iteratively estimated.
A general note: A reporter such as luciferase makes a cellular process visible.

The test system of data set [2] is creatine kinase expression in Ad5-wt-hERα infected HAECT-1 cells. The data set is described as follows: ER/CK: creatine kinase expression in Ad5-wt-ER infected HAECT-1 cells. The data set is classed as cell-based, human. Conditions: for EC50: Homo sapiens; for ER/CK % Eff*: efficacy relative to the maximal stimulation observed with E2. Here is the method:
as §1, §2, §3

The test system of data set [3] is IL-6 expression in Ad5-wt-hERα infected HAECT-1 cells. Nature of the data set: ER/IL-6: IL-6 expression (ELISA) in Ad5-wt-ER infected HAECT-1 cells. It counts as cell-based, human. The following applies: for IC50: IL-1β. Here is the method:
as §1, §2, §3
Background: An ELISA detects its analyte on a solid surface through an enzyme-linked reagent.

Where [4] appears, read: Ad5-wt-ER infected HAECT-1 cells.
[5] abbreviates: HAECT1, read-out: ER/CK EC50 (nM).

Like-named read-outs stand apart in the source and are kept apart here.

The melting point is the temperature, or range, at which the solid turns liquid.

For `O=C(c1ccc(O)cc1)c1n[nH]c2c(C(F)(F)F)cccc12` [Example 7, (4-hydroxyphenyl)[7-(trifluoromethyl)-1H-indazol-3-yl]methanone], in data set [1], the IC50 came out at 1000 nM and the Emax amounted to 43%. The “ER/CK EC50 (nM)” value in data set [2] (setting [4]) is “ia”.
On to `Oc1cccc(Cc2n[nH]c3ccccc23)c1` [Example 1, 3-[(1H-indazol-3-yl)methyl]phenol], for which the melting point was in the range of 170 to 172 °C.
Consider `O=C(c1cccc(O)c1)c1nn(C2C=CCCC2)c2ccccc12` (stereo not drawn) [Example 20, (1-cyclohex-2-en-1-yl-1H-indazol-3-yl)(3-hydroxyphenyl)methanone], for which the melting point lay within 140 to 141 °C. For the same compound, in data set [1], the IC50 is 155 nM and the Emax amounted to 87%. In addition, the “ER/CK EC50 (nM)” value in data set [2] (setting [4]) is recorded as “ia”.
On to `C/C=C/Cn1nc(C(=O)c2cccc(O)c2)c2ccccc21`, for which the melting point was 75 to 78 °C.
`CC(C)Cn1nc(C(=O)c2cccc(O)c2)c2ccccc21` [Example 17, (3-hydroxyphenyl)(1-isobutyl-1H-indazol-3-yl)methanone] displayed a melting point of 108 to 110 °C. In data set [1], the IC50 was 710 nM and the Emax came to 100%. Also, the EC50 in data set [2] (setting [5]) came to 1570 nM. Also, the “ER/CK % Eff*” value in data set [2] is recorded as 51%.
For the compound `CCCn1nc(C(=O)c2cccc(O)c2)c2cccc(C(F)(F)F)c21` [Example 11, (3-hydroxyphenyl)[1-propyl-7-(trifluoromethyl)-1H-indazol-3-yl]methanone], the melting point was 118 °C. For the same compound, in data set [1], the IC50 was 198 nM and the Emax came to 82%. Further, the “ER/CK EC50 (nM)” value in data set [2] (setting [4]) is recorded as “ia”.
Consider `CC(C)n1nc(C(=O)c2ccc(O)cc2)c2cccc(C(F)(F)F)c21` [Example 9, (4-hydroxyphenyl)[1-isopropyl-7-(trifluoromethyl)-1H-indazol-3-yl]methanone], for which, in data set [1], the IC50 worked out at 107 nM and the Emax worked out at 80%. Further, in data set [2] (setting [4]), the “ER/CK EC50 (nM)” value is “ia”.
Turning to `C[C@]12CC[C@@H]3c4ccc(O)cc4CC[C@H]3[C@@H]1CC[C@@H]2O` [Example E2, 17β-estradiol, reference compound], the IC50 is approximately 1 nM in data set [1]; 1.7 nM in data set [3] (setting [4]); approximately 1 nM in data set [3] (Homo sapiens, HAECT1, Ad5-wt-ER infected HAECT-1 cells). In addition, the Emax in data set [1] was determined as 100%. The “ER/IL-6 % Eff” value in data set [3] (efficacy relative to the maximal inhibition observed with E2) came out at 100%. Further, in data set [2] (HAECT1, Ad5-wt-ER infected HAECT-1 cells, read-out: ER/CK EC50), the EC50 came out at 5.8 nM. The “ER/CK % Eff*” value in data set [2] came out at 100%.
`CC(C)n1nc(C(=O)c2cccc(O)c2)c2cccc(C(F)(F)F)c21` [Example 13, (3-hydroxyphenyl)[1-isopropyl-7-(trifluoromethyl)-1H-indazol-3-yl]methanone] had a melting point of 145 °C. In data set [1], the IC50 was 63 nM and the Emax amounted to 85%. Moreover, in data set [2] (setting [4]), the “ER/CK EC50 (nM)” value is on record as “ia”.
The corresponding values for `C=C(C)Cn1nc(C(=O)c2cccc(O)c2)c2ccccc21` [Example 14, (3-hydroxyphenyl)[1-(2-methylprop-2-enyl)-1H-indazol-3-yl]methanone] are 75 to 78 °C, 388 nM, 103% and “ia”.
`O=C(c1ccc(O)cc1)c1nn(C2CCCC2)c2c(C(F)(F)F)cccc12` [Example 8, [1-cyclopentyl-7-(trifluoromethyl)-1H-indazol-3-yl](4-hydroxyphenyl)methanone]: the melting point was 225 to 226 °C. Further, in data set [1], the IC50 was 94 nM and the Emax is 87%. The “ER/CK EC50 (nM)” value in data set [2] (setting [4]) was “ia”.
With `O=C(c1cccc(O)c1)c1n[nH]c2c(C(F)(F)F)cccc12` [Example 10, (3-hydroxyphenyl)[7-(trifluoromethyl)-1H-indazol-3-yl]methanone], in data set [1], the IC50 was 593 nM and the Emax amounted to 88%. Besides, the “ER/CK EC50 (nM)” value in data set [2] (setting [4]) is on record as “ia”.
`CC(C)=CCn1nc(C(=O)c2cccc(O)c2)c2ccccc21` returned a melting point of 92 to 94 °C.
On to `O=C(c1cccc(O)c1)c1nn(Cc2ccccc2)c2ccccc12` [Example 19, (1-benzyl-1H-indazol-3-yl)(3-hydroxyphenyl)methanone], for which, in data set [1], the IC50 was 409 nM and the Emax is 92%. Moreover, in data set [2] (setting [4]), the “ER/CK EC50 (nM)” value is reported as “ia”.
For `O=C(c1cccc(O)c1)c1c2ccccc2nn1-c1ccc(Br)cc1` [Example 23, [2-(4-bromophenyl)-2H-indazol-3-yl](3-hydroxyphenyl)methanone], in data set [1], the IC50 was determined as 82 nM and the Emax is 79%. The “ER/CK EC50 (nM)” value in data set [2] (setting [4]) was “ia”.
`O=C(c1cccc(O)c1)c1nn(C2CCCC2)c2c(C(F)(F)F)cccc12` [Example 12, [1-cyclopentyl-7-(trifluoromethyl)-1H-indazol-3-yl](3-hydroxyphenyl)methanone]: the melting point is 152 °C. Also, in data set [1], the IC50 was 54 nM and the Emax amounted to 73%. Further, the EC50 in data set [2] (setting [5]) was 139 nM. Besides, the “ER/CK % Eff*” value in data set [2] came out at 32%.
As for `C=CCn1nc(C(=O)c2cccc(O)c2)c2ccccc21` [Example 18, (1-allyl-1H-indazol-3-yl)(3-hydroxyphenyl)methanone], in data set [1], the IC50 turned out to be 1240 nM and the Emax is 92%. The “ER/CK EC50 (nM)” value in data set [2] (setting [4]) was “ia”.
With `CCCn1nc(C(=O)c2cccc(O)c2)c2ccccc21` [Example 3, (3-hydroxyphenyl)(1-propyl-1H-indazol-3-yl)methanone], in data set [1], the IC50 came to 722 nM and the Emax came to 70%. Further, the EC50 in data set [2] (setting [5]) amounted to 2640 nM. The “ER/CK % Eff*” value in data set [2] was determined as 35%.
As to `COc1cccc(-n2nc(C(=O)c3cccc(O)c3)c3ccccc32)c1` [Example 22, (3-hydroxyphenyl)[1-(3-methoxyphenyl)-1H-indazol-3-yl]methanone], in data set [1], the IC50 was 475 nM and the Emax was 75%. Moreover, in data set [2] (setting [4]), the “ER/CK EC50 (nM)” value is on record as “ia”.
Consider `Oc1cccc(Cc2nn(C3CCCC3)c3ccccc23)c1` [Example 6, 3-[(1-cyclopentyl-1H-indazol-3-yl)methyl]phenol], for which, in data set [1], the IC50 is 570 nM and the Emax is 54%. In data set [2] (setting [4]), the “ER/CK EC50 (nM)” value is given as “ia”.
Consider `CC(C)n1nc(C(=O)c2cccc(O)c2)c2ccccc21` [Example 5, (3-hydroxyphenyl)(1-isopropyl-1H-indazol-3-yl)methanone], for which, in data set [1], the IC50 was 1070 nM and the Emax stood at 83%. Also, the EC50 in data set [2] (setting [5]) came out at 1790 nM. For the same compound, the “ER/CK % Eff*” value in data set [2] turned out to be 55%.
